Source: patent US5407942A, “Biphenylmethyl-substituted pyridones” (Bayer Aktiengesellschaft, priority 1992, dated 1995)
Values after ≈ are worked out from the molar mass of the structure shown.

Legend:
[1] = test system: isolated rabbit aorta rings; contraction induced by angiotensin II (AII); test: Inhibition of vascular contraction in isolated rabbit aorta rings induced by angiotensin II (AII); format: cell-based; conditions: Oryctolagus cuniculus; isolated rabbit aorta rings in vitro, 37° C.; based on 3rd = submaximal agonist concentration; read-out: IC50 against contractions induced by AII
Description: Investigation of the inhibition of the contraction induced by agonists
Rabbits of either sex are stunned by a blow to the back of the head and bled out, or in some cases anaesthetised with Nembutal (about 60-80 mg/kg i.v.) and sacrificed by opening the thorax. The thorax aorta is removed, freed from adhering connective tissue, divided into ring segments 1.5 mm wide and individually transferred under an initial loading of about 3.5 g to 10 ml organ baths containing Krebs-Henseleit nutrient solution, which is temperature-controlled at 37° C. and aerated with 95% O2 /5% CO2, of the following composition: 119 mmol/l of NaCl; 2.5 mmol/l of CaCl2 ×2H2 O; 1.2 mmol/l of KH2 PO4; 10 mmol/l of glucose; 4.8 mmol/l of KCl; 1.4 mmol/l of MgSO4 ×7 H2 O and 25 mmol/l of NaHCO3.
The contractions are detected isometrically by Statham UC2 cells by means of bridge amplifiers (ifd Mulheim or DSM Aalen) and digitalised and assessed by means of A/D converters (System 570, Keithley Munich). Agonist dose response curves (DRC) are plotted hourly. With each DRC, 3 or 4 individual concentrations are applied to the baths at a 4 min interval. After the end of the DRC and subsequent washing-out cycles (16 times in each case about 5 sec/min with the abovementioned nutrient solution), a 28-minute rest or incubation phase follows, during which the contractions as a rule reach the starting value again.
The height of the 3rd DRC, in a normal case, is used as a reference variable for the assessment of the test substance to be investigated in further runs, which is applied to the baths in the following DRCs in increasing doses in each case at the start of the incubation period. Each aorta ring is in this case stimulated for the whole day, always with the same agonist.
Agonists and their standard concentrations (application
For the calculation of the IC50 (concentration at which the substance to be investigated causes a 50% inhibition), the effect is in each case based on the 3rd=submaximal agonist concentration.

angiotensin II receptor = biological target: T1, angiotensin II receptor (Bos taurus, UniProt P25104); test: Interaction with the angiotensin II receptor in membrane fractions of the adrenal gland cortex (bovine), 3H-angiotensin II binding; conditions: 3H-angiotensin II 3-5 nM, 60 min at room temperature, read-out: Ki, specific binding of 3H-angiotensin II
T1 construct: partially purified membrane fractions of bovine AGC using radioactive angiotensin II; from tissue; host or cells: bovine adrenal gland cortex, partially purified membrane fractions
T1 sequence (P25104 1-359): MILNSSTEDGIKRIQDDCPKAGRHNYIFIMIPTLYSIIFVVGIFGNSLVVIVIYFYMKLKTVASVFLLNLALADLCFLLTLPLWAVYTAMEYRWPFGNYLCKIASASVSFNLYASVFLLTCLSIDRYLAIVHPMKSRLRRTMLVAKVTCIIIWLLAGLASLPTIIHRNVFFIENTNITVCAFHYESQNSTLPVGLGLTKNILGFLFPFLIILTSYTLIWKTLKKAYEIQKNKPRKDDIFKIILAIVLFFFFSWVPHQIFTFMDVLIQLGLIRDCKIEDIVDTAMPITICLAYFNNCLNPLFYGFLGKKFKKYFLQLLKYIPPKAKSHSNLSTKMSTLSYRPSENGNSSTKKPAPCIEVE
Excerpt: Interaction of the compounds according to the invention with the angiotensin II receptor in membrane fractions of the adrenal gland cortex (bovine)
Bovine adrenal gland cortices (AGC), which have been freshly removed and carefully freed from gland medulla, are comminuted in sucrose solution (0.32M) with the aid of an Ultra-Turrax (Janke & Kunkel, Staufen i.B.) to give a coarse membrane homogenate and partially purified in two centrifugation steps to give membrane fractions. The receptor binding investigations are carried out on partially purified membrane fractions of bovine AGC using radioactive angiotensin II in an assay volume of 0.25 ml, which specifically contains the partially purified membranes (50-80 μg), ^3 H-angiotensin II (3-5 nM), test buffer solution (50 mM Tris, pH 7.2, 5 mM MgCl2) and the substances to be investigated. After an incubation time of 60 min at room temperature, the unbound radioactivity of the samples is separated by means of moistened glass fibre filters (Whatman GF/C) and the bound radioactivity is measured […] in a scintillation cocktail after washing the protein with ice-cold buffer solution (50 mM Tris/HCl, pH 7.4, 5% PEG 6000). The analysis of the raw data was carried out using computer programs to give Ki or IC50 values (Ki : IC50 values corrected for the radioactivity used; IC50 values: concentration at which the substance to be investigated causes a 50% inhibition of the specific binding of the radioligand).

smooth muscle cells = test: Inhibition of the proliferation of smooth muscle cells (3H-thymidine incorporation); format: cell-based, rats or pigs; conditions: 10^-6 M, stimulated with AII, serum or other factors
Description: Investigation of the inhibition of the proliferation of smooth muscle cells by the compounds according to the invention
To determine the antiproliferative action of the compounds, smooth muscle cells are used which are obtained from aortas of rats or pigs by the media explant technique [R. Ross, J. Cell. Biol. 50, 172, 1971]. The cells are inoculated into suitable culture dishes, as a rule 24-hole plates, and cultured at 37° C. for 2-3 days in medium with addition of serum, 2 mmol L-glutamine and 15 mmol HEPES, pH 7.4 in 5% CO2. The cells are then synchronised by withdrawal of serum for 2-3 days and then stimulated into growth with AII, serum or other factors. Test compounds are simultaneously added. […]

| SMILES | IC50 [1] [µg/mL] | Ki (angiotensin II receptor) [nM] | inhibition at 1 µM (smooth muscle cells) [%] |
| --- | --- | --- | --- |
| CCCCc1cc2ccccc2c(=O)n1Cc1ccc(-c2ccccc2-c2nnn[nH]2)cc1 [Example 2, 3-Butyl-2-{[2'-(tetrazol-5-yl)-biphenyl-4-yl]methyl}-isoquinolin-1(2H)-one] | 0.23 (≈ 0.528 µM) | 42 | – |
| CCc1cc2ccccc2c(=O)n1Cc1ccc(-c2ccccc2-c2nnn[nH]2)cc1 [Example 4, 3-Ethyl-2-{[2'-(tetrazol-5-yl)-biphenyl-4-yl]methyl}-isoquinolin-1(2H)-one] | 0.84 (≈ 2.06 µM) | 750 | – |
| O=c1c2ccccc2cc(-c2ccccc2)n1Cc1ccc(-c2ccccc2-c2nnn[nH]2)cc1 [Example 6, 3-Phenyl-2-{[2'-(tetrazol-5-yl)-biphenyl-4-yl]methyl}-isoquinolin-1(2H)-one] | > 1 | 2000 | 70 |
